Assay results published in ChEMBL document CHEMBL1201862, “PubChem BioAssay data set” (2004).
Active and inactive are the calls of the source.

How the values were obtained:
[1] = target: Adenosylmethionine-8-amino-7-oxononanoate aminotransferase (Mycobacterium tuberculosis, UniProt P9WQ81); experiment: Mycobacterium tuberculosis BioA enzyme inhibitor Measured in Biochemical System Using Plate Reader - 2163-02_Inhibitor_Dose_CherryPick_Activity.; assay type: functional, Mycobacterium tuberculosis UT205
Adenosylmethionine-8-amino-7-oxononanoate aminotransferase, sequence (P9WQ81 whole entry): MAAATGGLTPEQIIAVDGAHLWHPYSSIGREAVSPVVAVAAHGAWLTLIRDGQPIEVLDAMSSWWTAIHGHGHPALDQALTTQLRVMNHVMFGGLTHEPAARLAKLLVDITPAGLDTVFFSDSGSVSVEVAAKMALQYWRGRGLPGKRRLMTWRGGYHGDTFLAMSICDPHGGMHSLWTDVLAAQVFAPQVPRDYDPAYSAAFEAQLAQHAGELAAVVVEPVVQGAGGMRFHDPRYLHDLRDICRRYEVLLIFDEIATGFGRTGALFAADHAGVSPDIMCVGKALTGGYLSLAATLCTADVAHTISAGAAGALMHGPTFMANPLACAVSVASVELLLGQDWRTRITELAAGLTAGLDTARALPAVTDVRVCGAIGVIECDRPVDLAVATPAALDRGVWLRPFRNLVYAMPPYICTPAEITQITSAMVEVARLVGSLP

Cytochrome P450 2D6 = Cytochrome P450 2D6 (Homo sapiens, UniProt P10635);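 also: CYP2D6 member of a cytochrome P450 panel assay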
Cytochrome P450 2D6, sequence (P10635 whole entry): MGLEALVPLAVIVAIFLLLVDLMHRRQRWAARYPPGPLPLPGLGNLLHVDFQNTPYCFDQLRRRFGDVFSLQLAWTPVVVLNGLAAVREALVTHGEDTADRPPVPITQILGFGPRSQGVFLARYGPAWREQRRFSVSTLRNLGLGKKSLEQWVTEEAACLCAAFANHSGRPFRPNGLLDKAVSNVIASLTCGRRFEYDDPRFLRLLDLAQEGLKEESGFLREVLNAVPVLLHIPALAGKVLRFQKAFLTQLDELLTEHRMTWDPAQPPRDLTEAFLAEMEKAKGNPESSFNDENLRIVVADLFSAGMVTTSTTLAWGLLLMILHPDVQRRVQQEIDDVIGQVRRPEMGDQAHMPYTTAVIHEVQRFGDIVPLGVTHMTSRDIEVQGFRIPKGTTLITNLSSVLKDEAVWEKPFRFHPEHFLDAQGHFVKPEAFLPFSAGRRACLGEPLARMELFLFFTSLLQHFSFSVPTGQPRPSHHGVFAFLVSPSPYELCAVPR

Cytochrome P450 1A2 = target: T1, Cytochrome P450 1A2 (Homo sapiens, UniProt P05177);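 also: PubChem cytochrome P450 panel assay, CYP1A2 panel member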
T1 sequence (P05177 whole entry): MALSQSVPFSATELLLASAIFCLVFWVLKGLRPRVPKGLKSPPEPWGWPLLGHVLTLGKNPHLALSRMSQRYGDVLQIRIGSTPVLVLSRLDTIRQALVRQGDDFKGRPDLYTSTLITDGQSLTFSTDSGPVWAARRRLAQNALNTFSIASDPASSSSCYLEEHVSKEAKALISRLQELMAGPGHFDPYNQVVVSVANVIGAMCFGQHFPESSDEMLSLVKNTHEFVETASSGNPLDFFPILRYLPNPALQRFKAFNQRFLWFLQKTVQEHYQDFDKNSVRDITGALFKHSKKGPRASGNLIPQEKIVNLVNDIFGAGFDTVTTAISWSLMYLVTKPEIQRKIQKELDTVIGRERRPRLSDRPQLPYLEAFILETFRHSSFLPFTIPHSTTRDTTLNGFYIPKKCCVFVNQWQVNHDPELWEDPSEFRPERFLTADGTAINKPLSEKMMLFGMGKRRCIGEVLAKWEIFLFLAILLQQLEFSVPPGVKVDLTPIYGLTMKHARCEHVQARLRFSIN

Protein Wnt-3a = Protein Wnt-3a (Mus musculus, UniProt P27467); experiment: antagonism of Wnt3a pathway luciferase reporter – Wnt-LIGHT cells, luminescence, selectivity assay for Gli-SUFU antagonist project, dose response (AID 651570); assay type: functional; conditions: read-out: IC50_Mean;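 also: Wnt-LIGHT reporter cells stimulated with conditioned medium from Wnt3a-producing cells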
Protein Wnt-3a, sequence (P27467 whole entry): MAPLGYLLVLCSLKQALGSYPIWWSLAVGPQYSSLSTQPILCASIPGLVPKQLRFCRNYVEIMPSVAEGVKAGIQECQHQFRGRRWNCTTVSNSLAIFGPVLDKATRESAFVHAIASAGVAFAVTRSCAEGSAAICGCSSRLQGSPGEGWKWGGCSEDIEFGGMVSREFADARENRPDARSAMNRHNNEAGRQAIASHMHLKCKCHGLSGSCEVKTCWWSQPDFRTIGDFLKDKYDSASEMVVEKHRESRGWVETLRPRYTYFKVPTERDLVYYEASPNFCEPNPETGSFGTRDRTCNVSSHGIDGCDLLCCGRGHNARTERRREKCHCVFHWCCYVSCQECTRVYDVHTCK

[2] = target: T2, Endoribonuclease toxin MazF (Escherichia coli K-12, UniProt P0AE70); experiment: substrate-only fluorescence increase artefacts – biochemical, single-stranded RNase substrate, counter-screen for MazEF activator project, dose response (AID 588502); assay type: functional
T2 sequence (P0AE70 whole entry): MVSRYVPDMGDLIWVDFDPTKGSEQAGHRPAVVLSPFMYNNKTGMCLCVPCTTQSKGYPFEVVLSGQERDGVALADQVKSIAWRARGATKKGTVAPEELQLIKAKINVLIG

[3] = target: T2, Endoribonuclease toxin MazF; experiment: activation of MazEF endoribonuclease cleavage – biochemical, fluorescence, single-stranded RNA substrate, uHTS hits, dose response (AID 588481); assay type: functional
[4] = target: T3, Sentrin-specific protease 8 (Homo sapiens, UniProt Q96LD8); experiment: inhibition of human SENP8 cleavage activity – biochemical, luminescence, SAR follow-up (AID 504501); assay type: functional
T3 sequence (Q96LD8 whole entry): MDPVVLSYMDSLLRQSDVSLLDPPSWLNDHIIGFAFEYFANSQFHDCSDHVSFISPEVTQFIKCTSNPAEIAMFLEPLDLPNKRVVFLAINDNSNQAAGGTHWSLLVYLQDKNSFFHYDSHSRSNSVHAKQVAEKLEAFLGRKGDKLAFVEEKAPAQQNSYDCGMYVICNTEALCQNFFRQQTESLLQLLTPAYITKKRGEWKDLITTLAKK

[5] = target: T4, Sentrin-specific protease 6 (Homo sapiens, UniProt Q9GZR1); experiment: SAR Analysis of small molecule inhibitors of Sentrin-specific protease 6 (SENP6) using a Luminescent assay. [Related pubchem assays (depositor defined):AID2582, AID2599]; assay type: functional
T4 sequence (Q9GZR1 whole entry): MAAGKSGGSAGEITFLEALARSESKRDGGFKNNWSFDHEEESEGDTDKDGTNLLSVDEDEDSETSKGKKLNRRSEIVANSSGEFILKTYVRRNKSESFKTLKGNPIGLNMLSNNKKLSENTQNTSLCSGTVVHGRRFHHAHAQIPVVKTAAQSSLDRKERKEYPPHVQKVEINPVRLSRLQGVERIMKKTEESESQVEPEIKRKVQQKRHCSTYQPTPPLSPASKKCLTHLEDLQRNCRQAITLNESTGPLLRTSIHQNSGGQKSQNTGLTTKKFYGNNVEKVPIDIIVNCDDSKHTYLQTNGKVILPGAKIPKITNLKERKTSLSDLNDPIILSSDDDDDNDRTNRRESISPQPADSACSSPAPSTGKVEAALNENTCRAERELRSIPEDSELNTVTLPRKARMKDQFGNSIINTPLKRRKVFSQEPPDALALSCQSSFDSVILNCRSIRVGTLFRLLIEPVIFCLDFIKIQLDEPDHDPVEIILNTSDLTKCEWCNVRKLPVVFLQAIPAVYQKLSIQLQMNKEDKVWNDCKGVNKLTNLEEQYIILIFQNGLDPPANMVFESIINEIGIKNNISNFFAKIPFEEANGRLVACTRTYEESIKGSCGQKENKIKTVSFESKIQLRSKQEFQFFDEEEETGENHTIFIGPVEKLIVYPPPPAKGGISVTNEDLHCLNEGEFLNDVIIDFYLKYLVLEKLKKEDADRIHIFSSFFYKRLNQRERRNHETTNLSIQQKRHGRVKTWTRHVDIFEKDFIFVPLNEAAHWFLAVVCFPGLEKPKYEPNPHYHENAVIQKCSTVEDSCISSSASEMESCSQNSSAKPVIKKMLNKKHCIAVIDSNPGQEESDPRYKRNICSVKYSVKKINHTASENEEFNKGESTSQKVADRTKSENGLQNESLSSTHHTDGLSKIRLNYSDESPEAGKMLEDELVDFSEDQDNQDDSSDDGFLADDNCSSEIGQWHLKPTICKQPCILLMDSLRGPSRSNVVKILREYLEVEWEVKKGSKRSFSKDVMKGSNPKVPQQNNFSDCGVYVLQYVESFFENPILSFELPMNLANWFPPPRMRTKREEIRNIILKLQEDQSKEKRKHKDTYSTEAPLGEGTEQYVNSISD

Caspase-3 = target: T5, Caspase-3 (Homo sapiens, UniProt P42574); experiment: SAR Analysis of small molecule inhibitors of Sentrin-specific proteases (SENPs) using a Caspase-3 Selectivity assay. [Related pubchem assays (depositor defined):AID2540, AID2599, AID434973, AID489001]; assay type: functional
T5 sequence (P42574 whole entry): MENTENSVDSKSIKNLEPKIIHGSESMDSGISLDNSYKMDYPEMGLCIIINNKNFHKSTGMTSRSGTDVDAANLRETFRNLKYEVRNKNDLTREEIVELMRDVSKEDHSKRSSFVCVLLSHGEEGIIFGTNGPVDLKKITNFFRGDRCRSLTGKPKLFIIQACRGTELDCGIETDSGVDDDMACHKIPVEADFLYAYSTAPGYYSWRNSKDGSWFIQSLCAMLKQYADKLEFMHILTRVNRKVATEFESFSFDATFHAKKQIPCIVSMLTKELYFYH

[6] = target: T6, Sentrin-specific protease 7 (Homo sapiens, UniProt Q9BQF6); experiment: inhibition of human SENP7 cleavage activity – biochemical, luminescence, SAR follow-up (AID 504497); assay type: functional
T6 sequence (Q9BQF6 whole entry): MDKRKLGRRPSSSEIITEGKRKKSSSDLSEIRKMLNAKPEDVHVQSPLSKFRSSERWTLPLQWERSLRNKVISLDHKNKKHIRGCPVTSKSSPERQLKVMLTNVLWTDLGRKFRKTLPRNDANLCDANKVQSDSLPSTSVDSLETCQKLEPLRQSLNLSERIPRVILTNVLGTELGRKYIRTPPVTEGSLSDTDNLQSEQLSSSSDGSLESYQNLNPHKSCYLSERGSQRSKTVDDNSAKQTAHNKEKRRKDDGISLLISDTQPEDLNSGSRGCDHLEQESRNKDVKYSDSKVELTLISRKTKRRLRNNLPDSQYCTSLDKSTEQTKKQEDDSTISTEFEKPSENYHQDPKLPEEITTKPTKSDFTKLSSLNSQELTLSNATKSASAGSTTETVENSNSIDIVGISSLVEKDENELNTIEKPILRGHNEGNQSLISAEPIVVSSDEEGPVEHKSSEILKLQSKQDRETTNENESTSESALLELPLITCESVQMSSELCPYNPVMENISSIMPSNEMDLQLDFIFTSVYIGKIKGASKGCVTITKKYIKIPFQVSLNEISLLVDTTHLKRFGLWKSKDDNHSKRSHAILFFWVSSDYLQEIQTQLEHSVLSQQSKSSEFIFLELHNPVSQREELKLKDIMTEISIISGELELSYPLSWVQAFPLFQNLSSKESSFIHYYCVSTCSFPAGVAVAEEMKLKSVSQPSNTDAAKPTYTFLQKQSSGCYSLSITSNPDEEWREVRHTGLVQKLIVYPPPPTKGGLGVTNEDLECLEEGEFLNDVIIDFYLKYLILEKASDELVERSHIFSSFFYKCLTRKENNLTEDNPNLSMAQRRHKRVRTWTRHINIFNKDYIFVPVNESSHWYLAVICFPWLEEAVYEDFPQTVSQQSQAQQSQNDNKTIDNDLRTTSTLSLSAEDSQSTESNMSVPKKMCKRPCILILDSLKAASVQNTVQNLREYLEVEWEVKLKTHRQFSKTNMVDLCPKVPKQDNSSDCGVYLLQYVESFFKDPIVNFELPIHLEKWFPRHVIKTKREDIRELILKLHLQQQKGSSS

[7] = target: Serine/threonine-protein kinase pim-1 (Homo sapiens, UniProt P11309); assay type: functional
Serine/threonine-protein kinase pim-1, sequence (P11309 whole entry): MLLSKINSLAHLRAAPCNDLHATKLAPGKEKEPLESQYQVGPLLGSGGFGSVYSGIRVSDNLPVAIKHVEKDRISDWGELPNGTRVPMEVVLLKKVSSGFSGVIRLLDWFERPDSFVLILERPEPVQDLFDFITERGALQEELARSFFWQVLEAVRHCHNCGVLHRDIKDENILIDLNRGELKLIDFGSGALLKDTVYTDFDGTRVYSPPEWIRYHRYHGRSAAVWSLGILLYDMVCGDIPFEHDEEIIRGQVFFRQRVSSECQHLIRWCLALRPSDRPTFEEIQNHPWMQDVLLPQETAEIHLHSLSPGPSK

[8] = target: Cell division cycle 7-related protein kinase (Homo sapiens, UniProt O00311); assay type: functional;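 also: value obtained from a kinome-wide kinase panel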
Cell division cycle 7-related protein kinase, sequence (O00311 whole entry): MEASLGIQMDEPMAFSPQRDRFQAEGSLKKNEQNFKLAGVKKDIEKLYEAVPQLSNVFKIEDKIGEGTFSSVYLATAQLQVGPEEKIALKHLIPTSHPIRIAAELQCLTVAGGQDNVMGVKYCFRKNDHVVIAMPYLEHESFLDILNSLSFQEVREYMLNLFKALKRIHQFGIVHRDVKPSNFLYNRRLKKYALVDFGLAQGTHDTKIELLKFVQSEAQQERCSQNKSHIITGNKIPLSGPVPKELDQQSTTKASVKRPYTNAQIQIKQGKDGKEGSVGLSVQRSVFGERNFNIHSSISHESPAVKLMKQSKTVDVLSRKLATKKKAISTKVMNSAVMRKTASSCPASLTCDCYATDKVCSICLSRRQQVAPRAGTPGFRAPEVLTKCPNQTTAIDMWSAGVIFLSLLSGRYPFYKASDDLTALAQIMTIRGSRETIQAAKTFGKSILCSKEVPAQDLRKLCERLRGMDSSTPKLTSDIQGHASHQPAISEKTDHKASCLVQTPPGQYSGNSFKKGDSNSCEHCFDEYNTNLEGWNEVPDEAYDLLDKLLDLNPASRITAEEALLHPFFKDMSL

[9] = target: Dual specificity protein kinase CLK4 (Homo sapiens, UniProt Q9HAZ1); assay type: functional
Dual specificity protein kinase CLK4, sequence (Q9HAZ1 whole entry): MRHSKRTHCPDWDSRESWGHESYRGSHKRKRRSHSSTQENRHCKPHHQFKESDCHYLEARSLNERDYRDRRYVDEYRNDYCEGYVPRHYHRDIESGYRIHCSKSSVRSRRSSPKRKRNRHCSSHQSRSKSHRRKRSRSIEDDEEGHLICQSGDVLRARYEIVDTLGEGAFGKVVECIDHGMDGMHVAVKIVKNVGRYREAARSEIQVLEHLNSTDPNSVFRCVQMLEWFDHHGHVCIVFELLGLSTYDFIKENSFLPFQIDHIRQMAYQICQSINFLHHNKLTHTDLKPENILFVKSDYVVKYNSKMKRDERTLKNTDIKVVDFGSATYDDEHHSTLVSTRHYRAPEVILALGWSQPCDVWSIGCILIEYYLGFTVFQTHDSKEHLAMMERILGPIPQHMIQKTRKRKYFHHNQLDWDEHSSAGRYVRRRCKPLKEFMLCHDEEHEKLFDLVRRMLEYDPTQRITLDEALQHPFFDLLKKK

[10] = target: Homeodomain-interacting protein kinase 2 (Homo sapiens, UniProt Q9H2X6); assay type: functional;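 also: measured within a kinome-wide kinase profiling panel, HIPK2 being one panel member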
Homeodomain-interacting protein kinase 2, sequence (Q9H2X6 whole entry): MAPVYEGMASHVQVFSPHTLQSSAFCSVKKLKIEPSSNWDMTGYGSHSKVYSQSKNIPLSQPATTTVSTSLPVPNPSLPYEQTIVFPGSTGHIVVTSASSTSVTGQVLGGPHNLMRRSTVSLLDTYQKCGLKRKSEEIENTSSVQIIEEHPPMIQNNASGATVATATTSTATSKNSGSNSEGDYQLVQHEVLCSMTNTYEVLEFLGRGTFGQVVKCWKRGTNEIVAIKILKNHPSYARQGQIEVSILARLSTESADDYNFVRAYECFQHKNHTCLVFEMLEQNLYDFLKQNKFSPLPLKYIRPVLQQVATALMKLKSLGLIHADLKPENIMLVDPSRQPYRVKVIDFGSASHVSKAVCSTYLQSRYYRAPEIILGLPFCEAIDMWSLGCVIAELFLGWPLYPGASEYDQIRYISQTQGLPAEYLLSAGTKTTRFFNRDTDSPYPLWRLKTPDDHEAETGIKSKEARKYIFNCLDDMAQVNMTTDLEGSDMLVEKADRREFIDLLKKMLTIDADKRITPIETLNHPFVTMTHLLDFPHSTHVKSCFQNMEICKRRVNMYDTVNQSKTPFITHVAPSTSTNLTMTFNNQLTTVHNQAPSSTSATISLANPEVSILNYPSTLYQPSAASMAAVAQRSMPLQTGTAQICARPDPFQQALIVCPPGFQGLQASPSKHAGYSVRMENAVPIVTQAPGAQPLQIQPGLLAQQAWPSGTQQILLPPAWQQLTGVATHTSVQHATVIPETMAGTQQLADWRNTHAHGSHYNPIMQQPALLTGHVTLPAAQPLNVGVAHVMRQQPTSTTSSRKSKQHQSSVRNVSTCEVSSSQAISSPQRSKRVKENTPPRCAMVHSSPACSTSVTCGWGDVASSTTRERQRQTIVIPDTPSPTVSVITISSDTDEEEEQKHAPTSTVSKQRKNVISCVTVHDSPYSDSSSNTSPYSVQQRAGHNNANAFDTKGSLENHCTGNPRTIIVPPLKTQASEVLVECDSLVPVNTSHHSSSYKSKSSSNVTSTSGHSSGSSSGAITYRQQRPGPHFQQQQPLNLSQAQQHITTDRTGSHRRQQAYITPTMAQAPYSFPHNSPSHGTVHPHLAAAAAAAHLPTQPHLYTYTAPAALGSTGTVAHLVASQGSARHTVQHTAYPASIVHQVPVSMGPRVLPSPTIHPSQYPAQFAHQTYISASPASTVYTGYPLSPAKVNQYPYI

[11] = target: cAMP-dependent protein kinase catalytic subunit alpha (Homo sapiens, UniProt P17612); assay type: functional
[12] = target: T7, Interleukin-1 receptor-associated kinase 4 (Homo sapiens, UniProt Q9NWZ3); assay type: functional
T7 sequence (Q9NWZ3 whole entry): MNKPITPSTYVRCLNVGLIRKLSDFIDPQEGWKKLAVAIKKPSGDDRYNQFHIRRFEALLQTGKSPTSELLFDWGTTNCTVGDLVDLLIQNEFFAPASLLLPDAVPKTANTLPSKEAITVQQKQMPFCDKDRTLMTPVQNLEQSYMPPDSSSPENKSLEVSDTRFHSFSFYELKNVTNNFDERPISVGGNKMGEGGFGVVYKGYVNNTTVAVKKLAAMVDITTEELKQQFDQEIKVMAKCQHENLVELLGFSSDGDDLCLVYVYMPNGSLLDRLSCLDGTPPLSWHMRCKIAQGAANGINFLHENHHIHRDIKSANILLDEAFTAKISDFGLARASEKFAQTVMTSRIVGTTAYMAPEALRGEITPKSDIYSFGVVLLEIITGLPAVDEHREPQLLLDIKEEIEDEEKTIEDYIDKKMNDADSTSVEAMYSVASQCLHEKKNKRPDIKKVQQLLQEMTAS

[13] = target: Glycogen synthase kinase-3 beta (Homo sapiens, UniProt P49841); assay type: functional;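 also: value comes from a broad kinome profiling panel, with GSK3B as the panel member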
Glycogen synthase kinase-3 beta, sequence (P49841 whole entry): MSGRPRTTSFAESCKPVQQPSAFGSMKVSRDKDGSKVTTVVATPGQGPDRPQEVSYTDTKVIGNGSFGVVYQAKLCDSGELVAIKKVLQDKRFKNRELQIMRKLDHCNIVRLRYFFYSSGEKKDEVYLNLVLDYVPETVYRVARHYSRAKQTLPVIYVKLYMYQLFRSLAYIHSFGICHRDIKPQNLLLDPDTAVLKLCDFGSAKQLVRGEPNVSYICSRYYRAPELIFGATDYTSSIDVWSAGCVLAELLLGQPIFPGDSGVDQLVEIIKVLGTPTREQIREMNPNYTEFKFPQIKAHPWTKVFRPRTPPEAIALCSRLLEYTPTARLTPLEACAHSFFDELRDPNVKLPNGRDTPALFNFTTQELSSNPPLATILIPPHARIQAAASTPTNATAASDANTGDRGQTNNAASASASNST

## C=CCn1c(COc2ccccc2F)nnc1SCCN1C(=O)c2ccccc2C1=O
[1]
  AC50: 7.95 µM (active)

## Cc1nc2nc(SCC(=O)NCc3ccco3)nn2c(C)c1Cc1c(F)cccc1Cl
Cytochrome P450 2D6
  AC50: 28.2 µM (inconclusive)
Cytochrome P450 1A2
  AC50: 20 µM (inconclusive)
[1]
  AC50: 1.38 µM (active)

## CCN(CC)S(=O)(=O)c1ccc(C)c(NC(=S)N2CCN(Cc3ccc4c(c3)OCO4)CC2)c1
Protein Wnt-3a
  IC50: 2.35 µM (active)

## CCCn1c(SCC(=O)Nc2nc(-c3ccc(OC)cc3)cs2)nc2c1c(=O)n(C)c(=O)n2C
[2]
  EC50: > 99 µM (inactive)
[3]
  EC50: > 99 µM (inactive)
Protein Wnt-3a
  IC50: 1.32 µM (active)

## O=C(Nc1ccc(-c2nc3cc(Cl)ccc3o2)cc1)c1ccccc1
[4]
  IC50: > 99 µM (inactive)
[5]
  IC50: > 99 µM (inactive)
Caspase-3
  IC50: > 99 µM (inactive)
[6]
  IC50: > 99 µM (inactive)

## Clc1ccc(N/N=C/c2cn(Cc3ccccc3)c3ccccc23)cc1
[4]
  IC50: > 99 µM (inactive)
[5]
  IC50: > 99 µM (inactive)
Caspase-3
  IC50: > 99 µM (inactive)
[6]
  IC50: > 99 µM (inactive)

## O=C(Nc1ccc(Oc2ccccc2)cc1)c1ccc2c(c1)OCO2
[4]
  IC50: 2.2 µM (active)
[5]
  IC50: 1.55 µM (active)
Caspase-3
  IC50: 1.99 µM (active)
[6]
  IC50: 1.06 µM (active)

## NC(=O)c1ccc(-c2ccnc(N)n2)cc1N1CCCCC1
[7]
  Ki: > 10 µM (inactive)
[8]
  Ki: 0.00794 µM (active)
[9]
  Ki: 0.00316 µM (active)
[10]
  Ki: > 3.16 µM (inactive)
[11]
  Ki: > 7.94 µM (inactive)
[12]
  Ki: 5.01 µM (active)
[13]
  Ki: 1 µM (active)
